Here are results for one molecule from patent US4598089A, “Leucine derivatives” (Hoffmann-La Roche Inc., priority 1983, dated 1986).

The term LD50 denotes the dose expected to kill half of the subjects tested. A word on the pIC50: it is the IC50 on a negative log10 scale, so that one unit is a factor of ten.

Data set [1] in a line: acute toxicity, single oral administration to mice. The settings on record: mouse, in vivo. The protocol: An emulsion which contains 1 mM taurodeoxycholate, 9 mM taurodeoleate, 0.1 mM cholesterol, 1 mM egg lecithin, 15 mg/ml BSA (i.e., bovine serum albumine), 2 mM Tris-HCl, 100 mM sodium chloride, 1 mM calcium chloride and the substrate triolein is treated with the compound of formula I dissolved in ethanol or dimethyl sulphoxide (10% of the emulsion volume) and the reaction is started by the addition of 100 μl (175 U) of pig pancreas lipase. the pH is held at 8 during the reaction by the addition of sodium hydroxide. The IC50 is calculated from the consumption of sodium hydroxide determined during 10 minutes. The IC50 is that concentration at which the lipase reactivity is inhibited to half of the maximum. Table I hereinafter contains IC50 values determined for the compounds of formula I and data concerning the acute toxicity (LD50 after single oral administration to mice).

The next data set deals with resorption of fats. In words: inhibition of the resorption of fats, double-labelling experiment on mice (3H-triolein and 14C-oleic acid excreted with the feces). As to conditions: 40 mg/kg lipstatin, given as preparation containing about 10% lipstatin, test meal. Format: in vivo. The protocol: For this purpose, there is administered to the test animals a test meal, which contains ^3 H-triolein and ^14 C-oleic acid, and a compound of formula I. By measuring the radioactivity there is then determined the amount of ^3 H-triolein and ^14 C-oleic acid (in % of the amount administered) excreted with the feces.
*The experiments were carried out with a preparation which contained abou
10% lipstatin. The dosage specified is the amount of lipstatin

In a further data set the target is T1, pig pancreas lipase (Sus scrofa, UniProt P00591).
T1 sequence (P00591 1-450): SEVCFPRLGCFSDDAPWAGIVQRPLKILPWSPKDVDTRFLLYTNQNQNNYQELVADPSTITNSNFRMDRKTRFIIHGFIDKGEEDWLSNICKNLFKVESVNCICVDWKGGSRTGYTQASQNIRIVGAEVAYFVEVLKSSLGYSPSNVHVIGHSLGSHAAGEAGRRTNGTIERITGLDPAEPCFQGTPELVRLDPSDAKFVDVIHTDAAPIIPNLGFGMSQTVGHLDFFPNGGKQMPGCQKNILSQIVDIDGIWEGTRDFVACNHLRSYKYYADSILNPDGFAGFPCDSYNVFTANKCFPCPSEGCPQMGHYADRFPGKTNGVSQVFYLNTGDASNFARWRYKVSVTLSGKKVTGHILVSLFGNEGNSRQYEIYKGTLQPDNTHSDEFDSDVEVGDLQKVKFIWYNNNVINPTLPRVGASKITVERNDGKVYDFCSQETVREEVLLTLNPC
In words: inhibition of pancreas lipase (titrimetric, oleic acid liberated from triolein). Format: biochemical. From the text: The IC50 is that concentration at which the lipase reactivity is inhibited to half of the maximum.

pIC50: −log10 of the molar value.

`CCCCC/C=C\C/C=C\C[C@@H](C[C@@H]1OC(=O)[C@H]1CCCCCC)OC(=O)[C@H](CC(C)C)NC=O` [Lipstatin, (2S,3S,5S,7Z,10Z)-5-[(S)-2-formamido-4-methyl-valeryloxy]-2-hexyl-3-hydroxy-7,10-hexadecadienoic acid lactone] yielded an LD50 in data set [1] of over 4000 mg/kg. For the same molecule, the “Excretion of Triolein in % of the amount administered” value with resorption of fats (controls 3.5 ± 0.3) is 56.8 ± 13 % of the amount administered. The “Excretion of Oleic acid in % of the amount administered” value with resorption of fats (controls 10.1 ± 0.6) was 13.8 ± 5.6 % of the amount administered. The pIC50 at pig pancreas lipase is 6.85.
